Results: ChEMBL document CHEMBL1201862, “PubChem BioAssay data set” (2004)
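Growth conditions: 96-well plates. Treatment: test compound, 48 hours, 5 concentrations. Analysis: linear interpolation between bracketing concentrations; unreached endpoints set to highest concentration. GI50: concentration for 50% inhibition of growth.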 Calls of active or inactive are those of the source. Cut-off read from the data, not from the text of the source: active = GI50 up to about 1.1 µM and inactive = higher.

Key:
Assay in all cases: growth of human tumour cells (NCI), 48 h
A498 = system: A498
DLD-1 = system: DLD-1
DMS-114 = system: DMS-114
HL-60 = system: HL-60
HOP-62 = system: HOP-62
HT-29 = system: HT-29
KM-20L2 = system: KM-20L2
OVCAR-4 = system: OVCAR-4
OVCAR-5 = system: OVCAR-5
SK-MEL-28 = system: SK-MEL-28
SK-MEL-5 = system: SK-MEL-5
SNB-19 = system: SNB-19
786-0 = system: 786-0
DU-145 = system: DU-145
MDA-MB-435 = system: MDA-MB-435
MDA-N = system: MDA-N
NCI/ADR-RES = system: NCI/ADR-RES
PC-3 = system: PC-3
T47D = system: T47D
DMS-273 = system: DMS-273

Row | Structure (SMILES) | GI50 (A498) | GI50 (DLD-1) | GI50 (DMS-114) | GI50 (HL-60) | GI50 (HOP-62) | GI50 (HT-29) | GI50 (KM-20L2) | GI50 (OVCAR-4) | GI50 (OVCAR-5) | GI50 (SK-MEL-28) | GI50 (SK-MEL-5) | GI50 (SNB-19) | GI50 (786-0) | GI50 (DU-145) | GI50 (MDA-MB-435) | GI50 (MDA-N) | GI50 (NCI/ADR-RES) | GI50 (PC-3) | GI50 (T47D) | GI50 (DMS-273)
1 | [O-]c1c2c(nn1-c1ccc(F)cc1)c1ccccc1c[n+]2Cc1ccccc1 | 30.9 µM (inactive) | 11 µM (inactive) | 10.8 µM (inactive) | 0.327 µM (active) | 16.5 µM (inactive) | 10.2 µM (inactive) | 11.6 µM (inactive) | 19.3 µM (inactive) | 11.9 µM (inactive) | 15.3 µM (inactive) | 3.96 µM (inactive) | 30.8 µM (inactive) | – | – | – | – | – | – | – | –
2 | O=C1c2ccccc2-c2nnc(-c3ccc(Cl)cc3)cc21 | > 10 µM (inactive) | – | – | > 10 µM (inactive) | > 10 µM (inactive) | > 10 µM (inactive) | – | > 10 µM (inactive) | > 10 µM (inactive) | > 10 µM (inactive) | > 10 µM (inactive) | > 10 µM (inactive) | > 10 µM (inactive) | > 10 µM (inactive) | > 10 µM (inactive) | > 10 µM (inactive) | > 10 µM (inactive) | > 10 µM (inactive) | > 10 µM (inactive) | –
3 | O=[N+]([O-])c1ccc(-c2ccc(-c3csc(Nc4ccccn4)n3)o2)cc1 | – | > 100 µM (inactive) | – | > 100 µM (inactive) | 31.2 µM (inactive) | > 100 µM (inactive) | > 100 µM (inactive) | 4.76 µM (inactive) | > 100 µM (inactive) | 95.7 µM (inactive) | – | 20.2 µM (inactive) | – | – | – | – | – | – | – | 35.2 µM (inactive)
4 | CC(=O)NC1C(OCc2ccccc2)OC(CO)C(O)C1OC(C)C(=O)N[C@@H](C)C(=O)N[C@H](CCC(=O)OCCNc1c2ccccc2nc2cccc([N+](=O)[O-])c12)C(N)=O (some centres undefined) | 0.00501 µM (active) | 0.00139 µM (active) | – | 0.00647 µM (active) | – | 0.000186 µM (active) | 0.000175 µM (active) | 0.0038 µM (active) | 0.00206 µM (active) | 0.00441 µM (active) | 0.00239 µM (active) | 0.000187 µM (active) | 0.000328 µM (active) | – | – | – | – | – | – | 0.0016 µM (active)
5 | Cn1c(=O)c2c(nc3n2C(CCl)CO3)n(C)c1=O (centres undefined) | > 100 µM (inactive) | > 100 µM (inactive) | > 100 µM (inactive) | > 100 µM (inactive) | > 100 µM (inactive) | > 100 µM (inactive) | – | > 100 µM (inactive) | > 100 µM (inactive) | > 100 µM (inactive) | > 100 µM (inactive) | > 100 µM (inactive) | > 100 µM (inactive) | – | – | – | – | – | – | > 100 µM (inactive)
6 | CC(C)(C)c1ccc(OCCOCCOc2ccc(C(C)(C)C)cc2S(N)(=O)=O)c(S(N)(=O)=O)c1 | 20.3 µM (inactive) | 99.5 µM (inactive) | 16.9 µM (inactive) | 14.5 µM (inactive) | > 100 µM (inactive) | 6.84 µM (inactive) | – | > 100 µM (inactive) | > 100 µM (inactive) | 94.6 µM (inactive) | 8.13 µM (inactive) | > 100 µM (inactive) | > 100 µM (inactive) | – | – | – | – | – | – | 72.6 µM (inactive)
7 | COc1ccc(OC)c(C2CCc3nc4nc(N)nc(N)c4cc3C2)c1 (centres undefined) | 12.7 µM (inactive) | – | – | 2.64 µM (inactive) | 2.13 µM (inactive) | 3.01 µM (inactive) | – | 2.07 µM (inactive) | 9.35 µM (inactive) | 2.4 µM (inactive) | 5.05 µM (inactive) | 2.43 µM (inactive) | 2.69 µM (inactive) | 5.66 µM (inactive) | 2.04 µM (inactive) | 2.13 µM (inactive) | > 100 µM (inactive) | 3.56 µM (inactive) | 1.94 µM (inactive) | –
8 | CO[C@@H]1C[C@H]2[C@@H]3CC[C@H]([C@H](C)CO)[C@@]3(C)CC[C@@H]2[C@@]2(C)CC[C@H]3C[C@]312 | 80.4 µM (inactive) | – | – | 20.7 µM (inactive) | > 100 µM (inactive) | 20.7 µM (inactive) | – | 55.8 µM (inactive) | > 100 µM (inactive) | 46.9 µM (inactive) | 30.4 µM (inactive) | 67.6 µM (inactive) | 62.5 µM (inactive) | > 100 µM (inactive) | 37.8 µM (inactive) | 39.8 µM (inactive) | 34.3 µM (inactive) | 27.6 µM (inactive) | 24.8 µM (inactive) | –
9 | CC12CCCC(C#N)(C1)OC2=O (centres undefined) | > 100 µM (inactive) | > 100 µM (inactive) | – | > 100 µM (inactive) | > 100 µM (inactive) | > 100 µM (inactive) | > 100 µM (inactive) | > 100 µM (inactive) | > 100 µM (inactive) | > 100 µM (inactive) | > 100 µM (inactive) | > 100 µM (inactive) | > 100 µM (inactive) | – | – | – | – | – | – | > 100 µM (inactive)
10 | O=c1[nH]c(-c2ccc([N+](=O)[O-])cc2)nc2ccc(Cl)cc12 | – | – | – | – | – | > 100 µM (inactive) | > 100 µM (inactive) | – | > 100 µM (inactive) | > 100 µM (inactive) | > 100 µM (inactive) | 66.2 µM (inactive) | > 100 µM (inactive) | – | – | – | – | – | – | > 100 µM (inactive)
